Data set [1] in a line: Isothermal titration calorimetry, binding to polyP. To be noted: for Kd: pH 7.4, 25° C. On the procedure: The interaction of MPI and polyP was carried out at 25° C. using a MicroCal iTC200 calorimeter (MicroCal, Northampton, USA). Samples were prepared by making stock solutions of at least 100× the desired concentration at high volume and filtered using 0.2 µm filters (Millex, Merck Millipore Ltd). The pH of each solution was then measured to ensure that they were between 7.35 and 7.40. Prior to titration, stock solutions were diluted with the same filtered buffer and degassed. Titrations consisted of 25 consecutive injections of 1.5 μL volume and 5 sec duration each, with a 3 min interval between injections with only the first injection between 0.2 μL volume, not used as part of the fit. Heat of dilution was measured by injecting MPI solution into buffer alone and was subtracted from the experimental curves prior to data analysis. The resulting data were fit into a single set of identical sites model using the MicroCal ORIGIN software supplied with the instrument.
For orientation: In ITC the heat of successive injections is recorded.

For data set [2] the following is noted: free ligand, value marked with a reference superscript; cited from earlier work.
Data set [3] in a line: 31P NMR titration of polyP with MPI or CBG. It is filed as binding. Conditions: HEPES buffer, 150 mM NaCl, 298 K. How it is done:
NMR spectra for MPI and polyP binding interaction studies were acquired on a Bruker 500 MHz instrument (Bruker Biospin, Milton, ON), operating at a ^1H frequency of 499.4 MHz. ^31P NMR spectra were collected at 298 K. The NMR sample was prepared to yield 0.5 mM of polyphosphate in HEPES buffer with 150 mM NaCl and 10% D2O (by volume) for a total sample volume of 600 μL. All polyphosphate concentrations are provided in terms of the concentration of phosphate monomer. For the binding study, polyphosphate was first prepared with a known concentration of internal standard of trimethylphosphate. MPI was titrated in, and the total volume was increased by 1.5 μL of the 600 μL total per addition.
While ITC experiments indicate the behavior of the amine functionalities on the CBGs during the MPI-polyP binding event, the effect of the MPI on the polyP phosphate backbone have previously been unknown. To determine the interaction between the MPI and polyP backbone, and how the interaction effects the electronic environment of the phosphorus nuclei, ^31P NMR titration experiments were performed. […] While it is not possible to quantify the number of bound phosphate units with MPI or CBG, it is possible to visualize the change in electronic environment of the phosphorus nuclei and extrapolate the binding behavior between MPI and polyP.

Another data set concerns human plasma clotting. As to the kind of experiment: Plasma clot formation by turbidity analysis in a TF-triggered system (no polyP). It is filed as biochemical. On the procedure:
Microplate turbidimetric clotting assays were performed with platelet-poor plasma (PPP) obtained from three donors. MPI solutions were prepared in 20 mM HEPES (pH 7.4, 150 mM NaCl) buffer. Clotting was initiated in 90 μL of 30% diluted PPP spiked with MPI (dilution 1:10) by adding 5 μL of recombinant tissue factor (TF; Innovin (1:10,000; […])) and 5 μL of CaCl2) (20 mM). Clotting was evaluated by monitoring changes in turbidity (A405 nm) every 30 seconds with the Spectramax microplate reader for 2 hours at 37° C. Clotting parameters including lag time were calculated and considered as the time point when an exponential increase in absorbance was first observed.

Another data set has as its system mice. Conditions: mice (Shenoi); cited from earlier work.
The subject of the next data set is tinzaparin (LMWH). As to the kind of experiment: Heparin reversal activity by aPTT in heparinized plasma. It counts as biochemical, human. Conditions: tinzaparin 1 U/mL. On the procedure:
(§1) Stock MPI, UHRA or protamine sulfate solutions were prepared in 20 mM HEPES buffer (pH 7.4 and 150 mM NaCl). Unfractionated heparin (Fresenius Kabi, Canada) or tinzaparin (LEO Pharma, Canada), 4 U/mL and 1 U/mL final concentrations, respectively, were incubated with sodium citrate anticoagulated pooled normal plasma (Affinity Biologicals, Canada) to prepare heparinized plasma, and were used to study the neutralization activity by various MPI and UHRA constructs. The neutralization activity of MPI, UHRA and protamine sulfate on the coagulation cascade was examined by mixing 20 μL of MPI or UHRA or protamine solution with 180 μL of heparin derivative incubated plasma ( 1/10 v/v). The final concentration of MPI, UHRA and protamine in plasma ranged from 0.025 mg/mL to 0.25 mg/mL. 200 μL of aPTT reagent (Dade®Actin®FS Activated PTT, Siemens/Dade-Behring) was then added to the neutralization reagent-plasma sample and 100 μL of this resulting mixture was transferred to cuvette-strips and incubated at 37° C. for 3 minutes. The clotting time was measured on a STart® 4 coagulometer (Diagnostica Stago, France) and began when 50 μL of 25 mM CaCl2) was added into each cuvette. Saline added to plasma with and without heparin-derivatives was used as a control for the experiments. The percentage of neutralization was calculated from the difference in the clotting times observed for MPI/UHRA/protamine versus control saline and heparinized plasma. All experiments were performed with pooled plasma of 20 donors in triplicates and the average values (mean±SD) are reported.

The test system of data set [4] is Unfractionated heparin (UFH). The description is as above. It is filed as biochemical, human. Conditions: UFH 4 U/mL, dose range 0-250 μg/mL. On the procedure:
as §1

As for `CN(C)CCN(C)CCN(C)C` [CBG I, N,NN′,N″,N″-pentamethyldiethylenetriamine], the “binding affinity to LC polyP (range in words)” value in data set [1] (ITC, FIG. 7) is “millimolar range”. The Kd in data set [1] (P45, HEPES, 10 mM NaCl) was found to be 7 mM. For the same compound, the Kd in data set [1] (P700, HEPES buffer) was found to be 9 mM. Besides, in data set [2], the “log K, H2L + H ⇌ H3L” value is recorded as 2.09 ± 0.02; the “log K, HL + H ⇌ H2L” value was 8.41 ± 0.02; the “log K, L + H ⇌ HL” value is given as 9.22 ± 0.02. Besides, the “binding behaviour towards P45 in 31P NMR titration” value in data set [3] is reported as “weak interaction”.

As for `CN(C)CCN(CCN(C)C)CCN(C)C` [Me6-TREN], in data set [2], the “log K, H2L + H ⇌ H3L” value was 7.44; the “log K, H3L + H ⇌ H4L” value is reported as <1.0; the “log K, HL + H ⇌ H2L” value is 8.68; the “log K, L + H ⇌ HL” value is reported as 9.50.

Turning to protamine sulfate, in the data set on human plasma clotting (MPI and PS 200 μg/mL, UHRA 75 μg/mL), the “plasma clot time (lag time) compared to buffer control” value was “performed significantly worse than MPI candidates”. The “increase in clot time compared to buffer control” value in the data set with human plasma clotting (pooled plasma) is ~3 fold. For the same compound, in the data set on mice, the lethal dose is reported as 30 mg/kg. Further, the LMWH neutralization entry with tinzaparin (LMWH) is “almost no neutralization activity on LMWH”. In data set [4], the “UFH neutralization in heparinized plasma” value is on record as “exhibits heparin neutralization at lower doses” and the “anticoagulant (overdose) behavior at higher doses” value is given as “clear anticoagulant behavior at higher doses”.

Broadly, the Kd is the equilibrium constant for the complex coming apart. High values mean weaker binding, low ones tighter binding.

The values are drawn from patent US20240398853A1, “MULTIVALENT POLYCATION INHIBITION OF POLYANIONS IN BLOOD” (The Regents of the University of Michigan, priority 2021, published 2024).
